Paper PMC7736581, “Activation of the IRE1 RNase through remodeling of the kinase front pocket by ATP-competitive ligands” (Nature Communications, 2020)

Columns and labels:
Experiment in all cases: biochemical
Design in all cases: Invitrogen kinase panel: Z'Lyte activity (ATP at Km) or LanthaScreen competitive ATP-site binding, percent inhibition
ARK5 = biological target: T1, ARK5 (Homo sapiens, UniProt O60285)
T1 construct: gene NUAK1

BMPR1A = BMPR1A (Homo sapiens, UniProt P36894)
DMPK = DMPK (Homo sapiens, UniProt Q09013)
DNA-PK = biological target: T2, DNA-PK (Homo sapiens, UniProt P78527)
T2 construct: gene PRKDC

EphA8 = EphA8 (Homo sapiens, UniProt P29322)
EphB3 = EphB3 (Homo sapiens, UniProt P54753)
ErbB2 = ErbB2 (Homo sapiens, UniProt P04626)
FAK = biological target: T3, FAK (Homo sapiens, UniProt Q05397)
T3 construct: gene PTK2

Frk = Frk (Homo sapiens, UniProt P42685)
GRK6 = GRK6 (Homo sapiens, UniProt P43250)
HIPK2 = HIPK2 (Homo sapiens, UniProt Q9H2X6)
IKK_alpha = biological target: T4, IKK_alpha (Homo sapiens, UniProt O15111)
T4 construct: gene CHUK

IRAK1 = IRAK1 (Homo sapiens, UniProt P51617)
MRCK_alpha = biological target: T5, MRCK_alpha (Homo sapiens, UniProt Q5VT25)
T5 construct: gene CDC42BPA

MuSK = MuSK (Homo sapiens, UniProt O15146)
NEK6 = NEK6 (Homo sapiens, UniProt Q9HC98)
NLK = NLK (Homo sapiens, UniProt Q9UBE8)
PDGFR_alpha = biological target: T6, PDGFR_alpha (Homo sapiens, UniProt P16234)
T6 construct: gene PDGFRA

PKC_alpha = biological target: T7, PKC_alpha (Homo sapiens, UniProt P17252)
T7 construct: gene PRKCA

PLK1 = PLK1 (Homo sapiens, UniProt P53350)
Rse = biological target: T8, Rse (Homo sapiens, UniProt Q06418)
T8 construct: gene TYRO3

SGK2 = SGK2 (Homo sapiens, UniProt Q9HBY8)
TGFBR1 = TGFBR1 (Homo sapiens, UniProt P36897)
ZAK = biological target: T9, ZAK (Homo sapiens, UniProt Q9NYL2)
T9 construct: gene MAP3K20

p38_alpha(direct) = biological target: T10, p38_alpha(direct) (Homo sapiens, UniProt Q16539)
T10 construct: gene MAPK14; direct

EphA8, sequence (P29322 whole entry): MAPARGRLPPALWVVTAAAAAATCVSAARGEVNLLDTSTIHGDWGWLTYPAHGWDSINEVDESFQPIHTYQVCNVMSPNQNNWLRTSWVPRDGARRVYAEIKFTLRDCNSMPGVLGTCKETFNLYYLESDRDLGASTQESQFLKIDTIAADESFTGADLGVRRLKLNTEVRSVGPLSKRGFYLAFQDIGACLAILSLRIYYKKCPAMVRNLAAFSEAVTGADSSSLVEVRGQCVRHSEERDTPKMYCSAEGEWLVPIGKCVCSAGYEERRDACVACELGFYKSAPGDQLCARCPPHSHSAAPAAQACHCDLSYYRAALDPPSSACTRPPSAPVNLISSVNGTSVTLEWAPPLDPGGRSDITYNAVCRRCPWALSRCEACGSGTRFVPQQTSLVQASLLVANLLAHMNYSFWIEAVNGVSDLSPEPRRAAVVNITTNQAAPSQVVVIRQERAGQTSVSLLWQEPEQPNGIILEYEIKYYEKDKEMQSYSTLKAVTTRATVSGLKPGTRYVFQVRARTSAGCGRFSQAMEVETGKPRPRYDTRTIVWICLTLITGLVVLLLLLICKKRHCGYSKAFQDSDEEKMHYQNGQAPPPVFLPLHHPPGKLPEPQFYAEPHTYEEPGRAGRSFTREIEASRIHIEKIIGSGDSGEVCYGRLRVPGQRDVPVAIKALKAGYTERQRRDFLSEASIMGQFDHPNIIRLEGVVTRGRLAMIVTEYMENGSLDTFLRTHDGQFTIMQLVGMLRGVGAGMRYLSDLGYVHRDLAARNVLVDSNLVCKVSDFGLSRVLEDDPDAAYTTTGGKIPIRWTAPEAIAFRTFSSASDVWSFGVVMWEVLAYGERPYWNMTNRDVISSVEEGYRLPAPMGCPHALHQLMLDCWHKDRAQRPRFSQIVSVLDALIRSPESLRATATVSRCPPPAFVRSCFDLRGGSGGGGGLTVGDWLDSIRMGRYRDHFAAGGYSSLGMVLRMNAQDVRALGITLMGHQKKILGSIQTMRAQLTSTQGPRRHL
T3 sequence (Q05397 whole entry): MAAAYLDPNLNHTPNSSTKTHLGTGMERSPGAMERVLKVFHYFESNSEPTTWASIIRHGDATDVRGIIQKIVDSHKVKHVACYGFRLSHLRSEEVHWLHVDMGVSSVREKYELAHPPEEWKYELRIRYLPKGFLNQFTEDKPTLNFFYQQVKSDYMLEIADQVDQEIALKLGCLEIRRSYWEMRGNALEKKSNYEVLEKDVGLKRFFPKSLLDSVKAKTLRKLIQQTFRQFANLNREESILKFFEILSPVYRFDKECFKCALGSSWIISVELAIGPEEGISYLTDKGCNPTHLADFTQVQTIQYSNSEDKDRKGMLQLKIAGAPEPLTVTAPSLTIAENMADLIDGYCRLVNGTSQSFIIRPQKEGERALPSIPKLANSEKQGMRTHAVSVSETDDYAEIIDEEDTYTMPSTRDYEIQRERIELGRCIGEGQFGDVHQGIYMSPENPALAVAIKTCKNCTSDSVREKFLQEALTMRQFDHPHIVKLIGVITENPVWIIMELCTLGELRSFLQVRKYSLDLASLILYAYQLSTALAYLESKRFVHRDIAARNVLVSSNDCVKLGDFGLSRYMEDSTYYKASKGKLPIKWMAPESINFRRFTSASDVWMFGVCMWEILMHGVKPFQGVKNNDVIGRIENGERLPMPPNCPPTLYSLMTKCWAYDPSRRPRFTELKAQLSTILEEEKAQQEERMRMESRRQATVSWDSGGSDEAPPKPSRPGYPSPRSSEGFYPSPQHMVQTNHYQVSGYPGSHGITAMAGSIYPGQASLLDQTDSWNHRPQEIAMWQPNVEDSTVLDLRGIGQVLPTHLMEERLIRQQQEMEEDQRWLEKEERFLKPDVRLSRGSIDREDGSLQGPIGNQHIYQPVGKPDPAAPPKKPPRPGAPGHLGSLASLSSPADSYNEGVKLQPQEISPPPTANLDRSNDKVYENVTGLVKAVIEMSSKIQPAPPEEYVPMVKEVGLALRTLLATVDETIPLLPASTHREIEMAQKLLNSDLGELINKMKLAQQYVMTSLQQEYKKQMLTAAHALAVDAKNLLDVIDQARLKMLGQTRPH
PLK1, sequence (P53350 whole entry): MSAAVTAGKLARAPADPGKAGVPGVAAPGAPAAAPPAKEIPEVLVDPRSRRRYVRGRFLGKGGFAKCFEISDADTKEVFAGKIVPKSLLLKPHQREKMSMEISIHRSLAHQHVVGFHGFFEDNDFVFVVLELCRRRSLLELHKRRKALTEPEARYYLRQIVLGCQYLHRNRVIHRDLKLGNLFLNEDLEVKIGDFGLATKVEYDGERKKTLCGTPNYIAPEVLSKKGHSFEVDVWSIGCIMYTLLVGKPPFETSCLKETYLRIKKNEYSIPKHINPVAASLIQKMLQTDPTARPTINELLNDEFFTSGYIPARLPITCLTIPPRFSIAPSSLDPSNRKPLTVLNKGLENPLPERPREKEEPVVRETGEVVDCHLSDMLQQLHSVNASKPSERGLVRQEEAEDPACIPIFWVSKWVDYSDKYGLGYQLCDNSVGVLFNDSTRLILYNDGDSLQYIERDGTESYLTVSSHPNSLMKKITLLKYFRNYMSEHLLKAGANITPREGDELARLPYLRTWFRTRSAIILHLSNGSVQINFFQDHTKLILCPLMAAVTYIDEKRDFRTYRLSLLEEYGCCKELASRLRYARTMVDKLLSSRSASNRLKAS
T5 sequence (Q5VT25 whole entry): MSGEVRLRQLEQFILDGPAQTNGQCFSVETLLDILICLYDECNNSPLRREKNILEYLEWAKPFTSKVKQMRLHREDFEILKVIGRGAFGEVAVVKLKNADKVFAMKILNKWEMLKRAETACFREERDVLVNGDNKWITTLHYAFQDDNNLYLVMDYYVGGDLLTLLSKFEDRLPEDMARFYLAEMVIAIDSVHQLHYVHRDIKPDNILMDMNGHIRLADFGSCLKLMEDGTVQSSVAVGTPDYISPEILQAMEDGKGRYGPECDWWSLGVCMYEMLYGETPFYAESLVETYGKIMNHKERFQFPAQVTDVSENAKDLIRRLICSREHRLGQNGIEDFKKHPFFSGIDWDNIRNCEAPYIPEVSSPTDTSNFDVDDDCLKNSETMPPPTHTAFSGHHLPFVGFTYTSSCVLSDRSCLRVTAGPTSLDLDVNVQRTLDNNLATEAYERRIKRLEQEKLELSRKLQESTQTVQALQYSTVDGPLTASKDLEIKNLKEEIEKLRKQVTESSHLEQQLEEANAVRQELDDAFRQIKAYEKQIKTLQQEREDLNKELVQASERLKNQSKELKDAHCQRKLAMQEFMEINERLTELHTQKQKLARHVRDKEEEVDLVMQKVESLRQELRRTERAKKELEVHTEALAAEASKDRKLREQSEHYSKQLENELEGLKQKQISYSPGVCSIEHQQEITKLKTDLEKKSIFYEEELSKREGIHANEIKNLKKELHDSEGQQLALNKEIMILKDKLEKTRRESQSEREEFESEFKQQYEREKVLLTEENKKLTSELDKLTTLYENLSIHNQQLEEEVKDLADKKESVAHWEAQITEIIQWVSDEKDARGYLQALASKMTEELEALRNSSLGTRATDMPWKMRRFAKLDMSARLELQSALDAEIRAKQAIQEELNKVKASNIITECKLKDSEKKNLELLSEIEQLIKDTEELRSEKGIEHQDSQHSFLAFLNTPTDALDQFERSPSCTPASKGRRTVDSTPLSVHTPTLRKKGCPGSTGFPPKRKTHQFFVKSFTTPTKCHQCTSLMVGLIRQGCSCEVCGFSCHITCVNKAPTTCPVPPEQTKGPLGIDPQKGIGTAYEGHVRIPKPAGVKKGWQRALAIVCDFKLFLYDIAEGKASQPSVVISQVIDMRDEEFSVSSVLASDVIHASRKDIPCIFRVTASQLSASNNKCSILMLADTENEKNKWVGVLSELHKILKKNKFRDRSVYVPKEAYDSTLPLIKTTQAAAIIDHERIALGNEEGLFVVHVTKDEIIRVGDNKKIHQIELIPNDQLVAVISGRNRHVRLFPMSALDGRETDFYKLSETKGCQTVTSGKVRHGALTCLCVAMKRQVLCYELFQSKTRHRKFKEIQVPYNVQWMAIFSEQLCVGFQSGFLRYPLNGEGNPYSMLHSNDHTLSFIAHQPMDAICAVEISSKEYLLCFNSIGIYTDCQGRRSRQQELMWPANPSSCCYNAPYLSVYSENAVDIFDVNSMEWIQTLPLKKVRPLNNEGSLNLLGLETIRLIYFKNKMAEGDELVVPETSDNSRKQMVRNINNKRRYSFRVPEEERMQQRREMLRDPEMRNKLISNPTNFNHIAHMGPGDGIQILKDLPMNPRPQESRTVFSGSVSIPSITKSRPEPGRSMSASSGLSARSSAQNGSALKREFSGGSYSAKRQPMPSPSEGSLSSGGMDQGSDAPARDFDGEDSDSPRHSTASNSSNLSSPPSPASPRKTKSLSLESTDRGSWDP
BMPR1A, sequence (P36894 whole entry): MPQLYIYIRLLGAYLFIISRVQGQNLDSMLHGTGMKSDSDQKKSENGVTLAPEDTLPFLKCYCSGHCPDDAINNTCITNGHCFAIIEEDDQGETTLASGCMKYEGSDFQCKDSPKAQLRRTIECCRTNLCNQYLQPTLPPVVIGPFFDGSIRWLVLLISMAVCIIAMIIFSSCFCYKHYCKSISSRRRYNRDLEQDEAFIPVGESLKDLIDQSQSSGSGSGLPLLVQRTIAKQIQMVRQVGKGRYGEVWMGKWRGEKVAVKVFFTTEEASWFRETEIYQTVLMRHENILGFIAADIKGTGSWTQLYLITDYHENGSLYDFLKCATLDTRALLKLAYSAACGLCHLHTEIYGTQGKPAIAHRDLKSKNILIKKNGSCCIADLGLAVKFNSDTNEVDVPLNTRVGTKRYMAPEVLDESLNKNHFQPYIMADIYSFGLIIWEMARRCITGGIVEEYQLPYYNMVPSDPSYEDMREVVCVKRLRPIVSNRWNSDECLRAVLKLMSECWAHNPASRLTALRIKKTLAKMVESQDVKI

SMILES | inhibition at 1 µM (ARK5) [%] | inhibition at 1 µM (BMPR1A) [%] | inhibition at 1 µM (DMPK) [%] | inhibition at 1 µM (DNA-PK) [%] | inhibition at 1 µM (EphA8) [%] | inhibition at 1 µM (EphB3) [%] | inhibition at 1 µM (ErbB2) [%] | inhibition at 1 µM (FAK) [%] | inhibition at 1 µM (Frk) [%] | inhibition at 1 µM (GRK6) [%] | inhibition at 1 µM (HIPK2) [%] | inhibition at 1 µM (IKK_alpha) [%] | inhibition at 1 µM (IRAK1) [%] | inhibition at 1 µM (MRCK_alpha) [%] | inhibition at 1 µM (MuSK) [%] | inhibition at 1 µM (NEK6) [%] | inhibition at 1 µM (NLK) [%] | inhibition at 1 µM (PDGFR_alpha) [%] | inhibition at 1 µM (PKC_alpha) [%] | inhibition at 1 µM (PLK1) [%] | other results
CCOC(=O)Nc1cccc2c(Oc3ncccc3-c3ccnc(N[C@H]4CCCNC4)n3)c(C)ccc12 [G-1749] | 12 | 0 | 0 | 6.5 | 1.5 | 3 | 7.5 | 1.5 | 10.5 | -1 | 3 | -3.5 | 9 | 4.5 | 13.5 | 2.5 | 13 | -3.5 | 1.5 | 5 | inhibition at 1 µM (Rse): 8.5%; inhibition at 1 µM (SGK2): 3.5%; inhibition at 1 µM (TGFBR1): 5.5%; inhibition at 1 µM (ZAK): -0.5%; inhibition at 1 µM (p38_alpha(direct)): 77.5%
CC#CC(=O)Nc1cccc2c(Oc3ncccc3-c3ccnc(N[C@H]4CCCNC4)n3)c(C)ccc12 [G-7658] | 8 | 2 | 1.5 | 11 | 6.5 | 4.5 | 3.5 | 1.5 | 1.5 | 1.5 | 2.5 | -2 | 11.5 | 5 | 9.5 | 17.5 | 19 | -0.5 | 4 | 6 | inhibition at 1 µM (Rse): 6.5%; inhibition at 1 µM (SGK2): 1.5%; inhibition at 1 µM (TGFBR1): 7.5%; inhibition at 1 µM (ZAK): 0.5%; inhibition at 1 µM (p38_alpha(direct)): 36.5%
